The source of these data is PubChem BioAssay (NCI).

The structures appear in SMILES notation.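 Each compound was tested at five concentrations against cells in 96-well plates for 48 hours. GI50 marks 50% less growth. Definition used: TGI = concentration required for complete inhibition of growth.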 A value given as a limit tells only on which side of the number the result lay.

Among the test systems are BT-549 breast; SF-539 CNS; OVCAR-4 ovarian; LOX IMVI melanoma; UO-31 renal; HT29 colon; RPMI-8226 leukemia; MDA-MB-435; IGROV1 ovarian; NCI/ADR-RES ovarian.
Assay in all cases: growth of human tumour cells (NCI), 48 h

In the case of `O=c1[nH]nc(Cc2ccc(Cl)cc2)n1/N=C/c1ccc([N+](=O)[O-])o1`, the TGI was 6.8 µM in the assay with BT-549 breast; 9.39 µM in the assay on SF-539 CNS; 15.9 µM with OVCAR-4 ovarian; above 24.8 µM with LOX IMVI melanoma; above 24 µM in the assay with UO-31 renal; above 41.1 µM with HT29 colon. Besides, the TGI in the assay with RPMI-8226 leukemia is 6.48 µM; with MDA-MB-435 it was 11.9 µM; in the assay with IGROV1 ovarian, 11.2 µM; in the assay on NCI/ADR-RES ovarian, above 35.5 µM.

Take `CC1CCC2(OC1)OC1C(O)C3C4CCC5CC(OC6OC(CO)C(OC7OC(CO)C(O)C(OC8OCC(O)C(O)C8O)C7OC7OC(CO)C(O)C(OC8OC(CO)C(O)C(O)C8O)C7O)C(O)C6O)C(O)CC5(C)C4CCC3(C)C1C2C` (stereo not given): the TGI with BT-549 breast is 3.19 µM; in the assay with SF-539 CNS it was 10.9 µM; with OVCAR-4 ovarian, 4.04 µM; in the assay with LOX IMVI melanoma it was 12.1 µM; in the assay with UO-31 renal, 3.66 µM; in the assay with HT29 colon, 11.8 µM. In addition, the TGI in the assay with RPMI-8226 leukemia came to 9.28 µM; in the assay on MDA-MB-435 it was 30 µM; in the assay with IGROV1 ovarian, 6.7 µM; in the assay with NCI/ADR-RES ovarian, 13.6 µM.

As for `COc1ccccc1C1C(C#N)=C(N)Oc2n[nH]c(C)c21` (stereo not given), the GI50 in the assay on BT-549 breast, in the assay with SF-539 CNS, with OVCAR-4 ovarian, in the assay with LOX IMVI melanoma, with UO-31 renal and with HT29 colon was above 100 µM throughout. The GI50 was 10.5 µM in the assay on RPMI-8226 leukemia, 75.1 µM in the assay with MDA-MB-435, 37.7 µM in the assay with IGROV1 ovarian and above 100 µM in the assay with NCI/ADR-RES ovarian. In addition, the TGI with BT-549 breast, in the assay with SF-539 CNS, in the assay with OVCAR-4 ovarian, in the assay on LOX IMVI melanoma, in the assay on UO-31 renal and with HT29 colon was above 100 µM in each case. Besides, the TGI in the assay with RPMI-8226 leukemia is 29.6 µM; with MDA-MB-435 it was above 100 µM; with IGROV1 ovarian, 95.7 µM; with NCI/ADR-RES ovarian, above 100 µM.

On to `O=[Se](O)O`, for which the TGI is 39 µM in the assay with BT-549 breast; 2.56 µM in the assay with SF-539 CNS; 21.1 µM with OVCAR-4 ovarian; above 100 µM with LOX IMVI melanoma; 7.36 µM with UO-31 renal; above 91.8 µM with HT29 colon. The TGI in the assay on RPMI-8226 leukemia is above 100 µM; with MDA-MB-435, above 100 µM; in the assay with IGROV1 ovarian it was 2.43 µM; with NCI/ADR-RES ovarian it was above 54.9 µM.

Take `Cc1ccccc1NC(=O)CC(=O)NNC(Sc1ccccc1)c1cc(N=Nc2ccc(Br)cc2)ccc1O` (stereo not given): the TGI in the assay on BT-549 breast is above 10 µM; with SF-539 CNS, 4.73 µM; with OVCAR-4 ovarian it was above 10 µM; in the assay on LOX IMVI melanoma, 9.11 µM; with UO-31 renal, above 10 µM; in the assay on HT29 colon it was above 10 µM. The TGI in the assay with RPMI-8226 leukemia was 9.06 µM; in the assay with MDA-MB-435, above 10 µM; in the assay on IGROV1 ovarian, above 10 µM; with NCI/ADR-RES ovarian, 9.08 µM.

`O=C1NC(N2CCOCC2)=N/C1=C\c1ccc(O)cc1`: the TGI in the assay with BT-549 breast, in the assay on SF-539 CNS, in the assay with OVCAR-4 ovarian, with LOX IMVI melanoma, in the assay with UO-31 renal and in the assay with HT29 colon was above 100 µM in each case. In addition, the TGI with RPMI-8226 leukemia, in the assay with MDA-MB-435, in the assay on IGROV1 ovarian and in the assay on NCI/ADR-RES ovarian was above 100 µM each time.

Take `CC(C)=CCC[C@@H](C)C1=C(O)C(Nc2ccccc2I)=C(C)C(=O)C1=O`: the TGI in the assay with BT-549 breast was above 75 µM; in the assay on SF-539 CNS it was 30 µM; with OVCAR-4 ovarian, above 75 µM; in the assay on LOX IMVI melanoma it was above 75 µM; with UO-31 renal it was 35.7 µM; in the assay with HT29 colon, 28 µM. The TGI with RPMI-8226 leukemia was above 36.8 µM; in the assay on MDA-MB-435 it was above 75 µM; in the assay on IGROV1 ovarian, 17.9 µM; in the assay with NCI/ADR-RES ovarian, above 17.6 µM.

`COc1nc(C#CC2CCCCC2)nc(OC)n1`: the TGI in the assay with BT-549 breast was 14.6 µM; in the assay with SF-539 CNS it was 6.31 µM; in the assay on OVCAR-4 ovarian, 27.3 µM; in the assay on LOX IMVI melanoma, 8.69 µM; with UO-31 renal, 12.2 µM; with HT29 colon, above 100 µM. For the same compound, the TGI with RPMI-8226 leukemia was 6.53 µM; with MDA-MB-435 it was 10.1 µM; in the assay on IGROV1 ovarian, 14 µM; with NCI/ADR-RES ovarian, 4.59 µM.

Consider `CCSC1=CC2(O)N(CCc3ccc(OC)c(OC)c3)C(=O)CC2(C(=O)OC)CC1=O` (stereo not given), for which the TGI with BT-549 breast was 32.8 µM; in the assay with SF-539 CNS, 78.7 µM; in the assay with OVCAR-4 ovarian it was above 100 µM; in the assay on LOX IMVI melanoma, 37.3 µM; in the assay with UO-31 renal, 33.1 µM; with HT29 colon it was 32.9 µM. Further, the TGI with RPMI-8226 leukemia is 91.3 µM; in the assay on MDA-MB-435, 46 µM; in the assay with IGROV1 ovarian it was 33.6 µM; in the assay on NCI/ADR-RES ovarian it was above 100 µM.

`CCOC(=O)c1cc(Br)c(-c2onc(C)c2Br)[nH]1`: the TGI in the assay with BT-549 breast, in the assay on SF-539 CNS, with OVCAR-4 ovarian, in the assay with LOX IMVI melanoma, with UO-31 renal and with HT29 colon was above 100 µM each time. Also, the TGI in the assay with RPMI-8226 leukemia, in the assay with MDA-MB-435, in the assay on IGROV1 ovarian and in the assay on NCI/ADR-RES ovarian was above 100 µM throughout.

Consider `COc1cccc(C2c3cc4c(cc3OC(Nc3ccccc3)C2C)OCO4)c1O` (stereo not given), for which the TGI in the assay with BT-549 breast was 38.8 µM; with SF-539 CNS, 18.1 µM; with OVCAR-4 ovarian, above 100 µM; with LOX IMVI melanoma it was 18.9 µM; in the assay with UO-31 renal it was 32.4 µM; in the assay on HT29 colon, 37.7 µM. Also, the TGI with RPMI-8226 leukemia was 43.8 µM; with MDA-MB-435, 5.66 µM; in the assay with IGROV1 ovarian it was 35.5 µM; in the assay with NCI/ADR-RES ovarian, above 100 µM.

Regarding `CCN(CC)C(=O)CCN1CC1`, the TGI with BT-549 breast, with SF-539 CNS, in the assay on OVCAR-4 ovarian, in the assay with LOX IMVI melanoma, in the assay on UO-31 renal and with HT29 colon was above 10 µM each time. For the same compound, the TGI in the assay with RPMI-8226 leukemia, with MDA-MB-435, with IGROV1 ovarian and in the assay on NCI/ADR-RES ovarian was above 10 µM in each case.
